From patent publication EP4818192A1, “USE OF GRP78-LIKE PEPTIDES” (priority 2023, dated 2026)
Ends that are not written are not given here.

What follows are sequences tested on periodontal ligament cells (rPDL).
Experimental: A total of 5.0 × 10^4 cells were seeded, and the culture medium was removed and the cells were washed twice with DPBS. The prepared fluorescent peptides were mixed with serum-free culture medium at a concentration of 200 µg/mL and incubated for 1 hour. After 1 hour of treatment, the cells were washed five times with DPBS and mounted with a mounting solution containing DAPI.
With “MEHFIKLYKKKTGKDVRK [SEQ ID NO: 4, MEHFIKLYKKKTGKDVRK]” the cell permeability was “high cell permeability”. In the case of MVLTKMKETAEAYLGKKVTH [SEQ ID NO: 3], the cell permeability is reported as “high cell permeability”. With “TFAPEEISAMVLTK [SEQ ID NO: 1, TFAPEEISAMVLTK]” the cell permeability was “high cell permeability”.
